Experimental data reported in patent US20070128217A1 (priority 2003, published 2007).

How the values were obtained:
[1] = system: rabbit serum obtained by immunizing a rabbit with the SARS-CoV strain Frankfurt 1; type: binding; set-up: Binding of a rabbit serum to linear peptides / Binding of a rabbit serum to looped peptides / Rabbit serum linear peptides / Rabbit serum looped peptides / Binding of a rabbit serum to linear peptides of protein N of SARS-CoV Urbani (Rabbit serum linear peptides) / Binding of a rabbit serum to looped/cyclic peptides of protein N of SARS-CoV Urbani (Rabbit serum looped peptides): unit not given here
[2] = system: antibodies in sera from SARS patients (sera 1a, 1b, 2, 6, 37, 62, London, SARS-yellow, SARS-green); type: binding, human; set-up: Binding of serum 6 to linear peptides of protein X1 of SARS-CoV Urbani / Binding of serum 37 to linear peptides of protein X1 of SARS-CoV Urbani / Binding of serum 6 to looped/cyclic peptide (PEPSCAN-ELISA) / Binding of serum 37 to looped/cyclic peptide (PEPSCAN-ELISA) / Binding of serum 37 to looped/cyclic peptides of protein X1 of SARS-CoV Urbani / Binding of serum 6 to linear peptides of protein X2 / Binding of serum 37 to linear peptides of protein X2 / Binding of serum 37 to looped/cyclic peptides of protein X2 of SARS-CoV Urbani / Binding of serum 6 to linear peptides of protein M of SARS-CoV Urbani / Binding of serum 37 to linear peptides of protein M of SARS-CoV Urbani / Binding of serum 6 to looped/cyclic peptides of protein M of SARS-CoV Urbani / Binding of serum 37 to looped/cyclic peptides of protein M of SARS-CoV Urbani / Binding of serum 6 to linear peptides of protein X3 of SARS-CoV Urbani / Binding of serum 37 to linear peptides of protein X3 of SARS-CoV Urbani / Binding of serum 37 to looped/cyclic peptides of protein X3 of SARS-CoV Urbani / Binding of serum 6 to linear peptides of protein X4 of SARS-CoV Urbani / Binding of serum 37 to linear peptides of protein X4 of SARS-CoV Urbani / Binding of serum 37 to looped/cyclic peptides of protein X4 of SARS-CoV Urbani / Binding of serum 6 to linear peptides of protein X5 of SARS-CoV Urbani / Binding of serum 37 to linear peptides of protein X5 of SARS-CoV Urbani / Binding of serum 37 to looped/cyclic peptides of protein X5 of SARS-CoV Urbani / Binding of serum 6 to linear peptides of protein N of SARS-CoV Urbani / Binding of serum 37 to linear peptides of protein N of SARS-CoV Urbani / Binding of serum 6 to linear peptide (PEPSCAN-ELISA) / Binding of serum 1a to looped/cyclic peptides of protein N of SARS-CoV Urbani / Binding of serum 1b to looped/cyclic peptides of protein N of SARS-CoV Urbani / Binding of serum 2 to looped/cyclic peptides of protein N of SARS-CoV Urbani / Binding of serum 6 to looped/cyclic peptides of protein N of SARS-CoV Urbani / Binding of serum 37 to looped/cyclic peptides of protein N of SARS-CoV Urbani / Binding of serum 62 to looped/cyclic peptides of protein N of SARS-CoV Urbani / Binding of serum London to looped/cyclic peptides of protein N of SARS-CoV Urbani / Binding of serum SARS-green to looped/cyclic peptides of protein N of SARS-CoV Urbani: unit not given here
[3] = system: control sera (pooled serum of ten healthy LUMC hospital workers; commercial negative donor pooled serum from the Dutch bloodbank); type: binding, human; set-up: Binding of Control serum LUMC to linear peptides / Binding of Control serum Blood-bank to linear peptides / Binding of Control serum LUMC to looped peptides / Binding of Control Serum Blood-Bank to Looped peptides / Binding of Control serum LUMC to linear peptides of the protein M of SARS-CoV Urbani / Binding of Control serum Blood-bank to linear peptides of the protein M of SARS-CoV Urbani / Binding of Control serum LUMC to looped peptides of the protein M of SARS-CoV Urbani / Binding of Control Serum Blood-Bank to Looped peptides of the protein M of SARS-CoV Urbani: unit not given here

Sequence: LPFGWLVIGVAFLAV
- Binding of a rabbit serum to linear peptides [1]: 2.0
- Binding of a rabbit serum to looped peptides [1]: 0.5
- Binding of serum 1a to linear peptides of protein X1 of SARS-CoV Urbani [2]: 0.8
- Binding of serum 1a to looped/cyclic peptide (PEPSCAN-ELISA) [2]: 0.5
- Binding of serum 1b to linear peptides of protein X1 of SARS-CoV Urbani [2]: 0.6
- Binding of serum 1b to looped/cyclic peptide (PEPSCAN-ELISA) [2]: 0.3
- Binding of serum 2 to linear peptides of protein X1 of SARS-CoV Urbani [2]: 0.7
- Binding of serum 2 to looped/cyclic peptide (PEPSCAN-ELISA) [2]: 0.4
- Binding of serum 6 to linear peptides of protein X1 of SARS-CoV Urbani [2]: 0.5
- Binding of serum 6 to looped/cyclic peptide (PEPSCAN-ELISA) [2]: 0.3
- Binding of serum 37 to linear peptides of protein X1 of SARS-CoV Urbani [2]: 0.7
- Binding of serum 37 to looped/cyclic peptide (PEPSCAN-ELISA) [2]: 0.6
- Binding of serum 62 to linear peptides of protein X1 of SARS-CoV Urbani [2]: 0.8
- Binding of serum 62 to looped/cyclic peptide (PEPSCAN-ELISA) [2]: 0.6
- Binding of serum London to linear peptides of protein X1 of SARS-CoV Urbani [2]: 0.3
- Binding of serum London to looped/cyclic peptide (PEPSCAN-ELISA) [2]: 0.2
- Binding of serum SARS-green to linear peptides of protein X1 of SARS-CoV Urbani [2]: 0.3
- Binding of serum SARS-green to looped/cyclic peptide (PEPSCAN-ELISA) [2]: 0.3
- Binding of serum SARS-yellow to linear peptides of protein X1 of SARS-CoV Urbani [2]: 0.7
- Binding of serum SARS-yellow to looped/cyclic peptide (PEPSCAN-ELISA) [2]: 0.3
- Binding of Control Serum Blood-Bank to Looped peptides [3]: 0.5
- Binding of Control serum Blood-bank to linear peptides [3]: 0.7
- Binding of Control serum LUMC to linear peptides [3]: 0.7
- Binding of Control serum LUMC to looped peptides [3]: 0.4

Sequence: LPFHRWHTMVQTCTP
- Rabbit serum linear peptides [1]: 0.5
- Rabbit serum looped peptides [1]: 0.3
- Binding of serum 1a to linear peptides of protein X5 of SARS-CoV Urbani [2]: 0.8
- Binding of serum 1a to looped/cyclic peptides of protein X5 of SARS-CoV Urbani [2]: 0.5
- Binding of serum 1b to linear peptides of protein X5 of SARS-CoV Urbani [2]: 0.7
- Binding of serum 1b to looped/cyclic peptides of protein X5 of SARS-CoV Urbani [2]: 0.4
- Binding of serum 2 to linear peptides of protein X5 of SARS-CoV Urbani [2]: 0.9
- Binding of serum 2 to looped/cyclic peptides of protein X5 of SARS-CoV Urbani [2]: 0.5
- Binding of serum 6 to linear peptides of protein X5 of SARS-CoV Urbani [2]: 0.6
- Binding of serum 6 to looped/cyclic peptides of protein X5 of SARS-CoV Urbani [2]: 0.3
- Binding of serum 37 to linear peptides of protein X5 of SARS-CoV Urbani [2]: 0.8
- Binding of serum 37 to looped/cyclic peptides of protein X5 of SARS-CoV Urbani [2]: 0.4
- Binding of serum 62 to linear peptides of protein X5 of SARS-CoV Urbani [2]: 0.8
- Binding of serum 62 to looped/cyclic peptides of protein X5 of SARS-CoV Urbani [2]: 0.3
- Binding of serum London to linear peptides of protein X5 of SARS-CoV Urbani [2]: 0.9
- Binding of serum London to looped/cyclic peptides of protein X5 of SARS-CoV Urbani [2]: 0.2
- Binding of serum SARS-green to linear peptides of protein X5 of SARS-CoV Urbani [2]: 0.6
- Binding of serum SARS-green to looped/cyclic peptides of protein X5 of SARS-CoV Urbani [2]: 0.3
- Binding of serum SARS-yellow to linear peptides of protein X5 of SARS-CoV Urbani [2]: 0.4
- Binding of serum SARS-yellow to looped/cyclic peptides of protein X5 of SARS-CoV Urbani [2]: 0.2
- Binding of Control Serum Blood-Bank to Looped peptides [3]: 0.5
- Binding of Control serum Blood-bank to linear peptides [3]: 0.6
- Binding of Control serum LUMC to linear peptides [3]: 0.5
- Binding of Control serum LUMC to looped peptides [3]: 0.4

Sequence: LQELLIQQWIQFMMS
- Binding of a rabbit serum to linear peptides [1]: 0.3
- Binding of a rabbit serum to looped peptides [1]: 0.3
- Binding of serum 1a to linear peptides of protein X2 [2]: 0.7
- Binding of serum 1a to looped/cyclic peptides of protein X2 of SARS-CoV Urbani [2]: 0.6
- Binding of serum 1b to linear peptides of protein X2 [2]: 0.6
- Binding of serum 1b to looped/cyclic peptides of protein X2 of SARS-CoV Urbani [2]: 0.5
- Binding of serum 2 to linear peptides of protein X2 [2]: 0.3
- Binding of serum 2 to looped/cyclic peptides of protein X2 of SARS-CoV Urbani [2]: 0.3
- Binding of serum 6 to linear peptides of protein X2 [2]: 0.3
- Binding of serum 6 to looped/cyclic peptides of protein X2 of SARS-CoV Urbani [2]: 0.2
- Binding of serum 37 to linear peptides of protein X2 [2]: 0.5
- Binding of serum 37 to looped/cyclic peptides of protein X2 of SARS-CoV Urbani [2]: 0.4
- Binding of serum 62 to linear peptides of protein X2 [2]: 0.5
- Binding of serum 62 to looped/cyclic peptides of protein X2 of SARS-CoV Urbani [2]: 0.6
- Binding of serum London to linear peptides of protein X2 [2]: 0.4
- Binding of serum London to looped/cyclic peptides of protein X2 of SARS-CoV Urbani [2]: 0.2
- Binding of serum SARS-green to linear peptides of protein X2 [2]: 0.5
- Binding of serum SARS-green to looped/cyclic peptides of protein X2 of SARS-CoV Urbani [2]: 0.2
- Binding of serum SARS-yellow to linear peptides of protein X2 [2]: 0.6
- Binding of serum SARS-yellow to looped/cyclic peptides of protein X2 of SARS-CoV Urbani [2]: 0.3
- Binding of Control Serum Blood-Bank to Looped peptides [3]: 0.6
- Binding of Control serum Blood-bank to linear peptides [3]: 0.5
- Binding of Control serum LUMC to linear peptides [3]: 0.3
- Binding of Control serum LUMC to looped peptides [3]: 0.6
